Experiment: mn = molality of the nth substance listed, in mol/kg
Details: 101 kPa, Liquid; for viscosity: Capillary tube (Ostwald / Ubbelohde) method; for mass density: Vibrating tube method

Cc1c(N)cccc1N [2,6-diaminotoluene] + CCO
Details | mass density, 293.15 K [kg/m3] | mass density, 303.15 K [kg/m3] | mass density, 313.15 K [kg/m3] | mass density, 323.15 K [kg/m3] | mass density, 333.15 K [kg/m3] | viscosity, 293.15 K [mPa·s] | viscosity, 303.15 K [mPa·s] | viscosity, 313.15 K [mPa·s] | viscosity, 323.15 K [mPa·s] | viscosity, 333.15 K [mPa·s]
m1 = 0.0503 | 791.34 | 782.75 | 773.98 | 765.05 | 755.93 | 1.193 | 0.983 | 0.814 | 0.68 | 0.569
m1 = 0.1002 | 793.1 | 784.49 | 775.72 | 766.78 | 757.66 | 1.206 | 0.991 | 0.823 | 0.686 | 0.573
m1 = 0.1497 | 794.82 | 786.2 | 777.43 | 768.49 | 759.36 | 1.221 | 1.002 | 0.829 | 0.69 | 0.578
m1 = 0.1996 | 796.54 | 787.9 | 779.12 | 770.18 | 761.05 | 1.233 | 1.011 | 0.835 | 0.696 | 0.582
m1 = 0.2496 | 798.23 | 789.59 | 780.81 | 771.86 | 762.72 | 1.245 | 1.021 | 0.843 | 0.7 | 0.586
m1 = 0.2997 | 799.92 | 791.26 | 782.49 | 773.53 | 764.4 | 1.258 | 1.03 | 0.849 | 0.707 | 0.591
m1 = 0.3496 | 801.55 | 792.9 | 784.13 | 775.18 | 766.04 | 1.272 | 1.04 | 0.857 | 0.711 | 0.595
m1 = 0.3995 | 803.2 | 794.53 | 785.77 | 776.81 | 767.67 | 1.286 | 1.05 | 0.864 | 0.718 | 0.6
m1 = 0.4497 | 804.84 | 796.16 | 787.4 | 778.43 | 769.3 | 1.3 | 1.061 | 0.872 | 0.723 | 0.604
m1 = 0.4995 | 806.45 | 797.75 | 789 | 780.03 | 770.89 | 1.313 | 1.07 | 0.879 | 0.731 | 0.609
m1 = 0.5495 | 808.02 | 799.33 | 790.56 | 781.61 | 772.46 | 1.328 | 1.08 | 0.888 | 0.736 | 0.613
m1 = 0.5995 | 809.61 | 800.9 | 792.14 | 783.18 | 774.03 | 1.342 | 1.09 | 0.895 | 0.742 | 0.618
m1 = 0.6492 | 811.1 | 802.44 | 793.67 | 784.72 | 775.55 | 1.357 | 1.102 | 0.903 | 0.746 | 0.622
m1 = 0.6984 | 812.63 | 803.98 | 795.19 | 786.23 | 777.07 | 1.372 | 1.112 | 0.91 | 0.753 | 0.626
m1 = 0.7488 | 814.15 | 805.51 | 796.73 | 787.77 | 778.61 | 1.389 | 1.124 | 0.919 | 0.758 | 0.631
m1 = 0.7991 | 815.68 | 807.02 | 798.25 | 789.3 | 780.13 | 1.408 | 1.134 | 0.926 | 0.762 | 0.636

Reference: the NIST ThermoML archive (doi:10.1021/je400968v)
